Molecules are shown by their SMILES.

As to `Cc1c(N2CC(O)C2)c(F)cc2c(=O)c(C(=O)O)cn(-c3nc(N)c(F)cc3F)c12`, the melting point is 245 to 247 °C.

Compound `Cc1cnc2nc(SCc3ccccc3)nn2c1` had a melting point of 254 to 256 °C.

The compound `O=C(OCc1ccccc1)C1(NS(=O)(=O)c2ccc(Oc3ccc(F)cc3)cc2)CCCC1` showed a melting point of 97 to 97.5 °C.

Regarding `CONC(=O)C(Oc1cc(OCc2ccsc2)ccc1C#N)c1ccccc1C` (racemic), the melting point fell in the range of 155 to 156 °C.

On to `CCOC(=O)Cn1c(=O)[nH]c(=O)c2ccc(Cl)cc21`, for which the melting point was 242 to 243 °C.

Compound `CCOC(=O)c1nc2ccc(C(C(C)C)n3ccnc3)cc2[nH]c1=O` (stereo unspecified) returned a melting point of 185 °C.

With `CCn1c(Oc2cccc(N)c2)nnc1[C@@H](C)NS(=O)(=O)c1ccc(Cl)c(Cl)c1`, the melting point fell in the range of 142 to 145 °C.

The compound `CCCC(=O)c1ccnc(Cl)c1NC(=O)c1ccccc1F` showed a melting point of 142 °C.

Consider `COC(=O)c1cc(OC)cc(OC)c1N`, for which the melting point lay in the range of 93 to 95 °C.

`O=[N+]([O-])c1cnc(Sc2nnc(O)n2-c2ccccc2)s1`: the melting point was in the range of 188 to 190 °C.

Take `CCCCOC(=O)NCCc1nc(-c2ccc(-c3ccccc3)cc2)c[nH]1`: the melting point was 137 °C.

On to `Cc1ccccc1C(Oc1cc(OCc2ccc3c(c2)OCO3)ccc1C#N)C(=O)O` (racemic), for which the melting point lay in the range of 52 to 56 °C.

For `CN(C)CC(C)(C)Cn1ccc(-c2ccc(F)cc2)c1-c1ccncc1`, the melting point was in the range of 101 to 103 °C.

`c1cnc2ncn(CCCCc3nnnn3C3CCCCC3)c2c1` registered a melting point of 143 to 146 °C.

With `CC(C)(C)OC(=O)NCc1nc(C(=O)ON2C(=O)CCC2=O)cs1`, the melting point was determined as 171 °C.

For `COC(CCCNc1ccc(-c2nc(=O)c3ccccc3s2)cn1)OC`, the melting point was in the range of 157 to 158 °C.

Regarding `COc1ccc(-c2ccc(C(C)=NO)cc2)cc1`, the melting point was in the range of 82 to 84 °C.

The compound `CCCCOC(=O)C(c1ccc(O)c(C(C)(C)C)c1)c1ccc(O)c(C(C)(C)C)c1` displayed a melting point of 124 °C.

In turn, `Cc1cccc2c1C(=O)N(C)Cc1c(C#CC(C)(C)O)ncn1-2` gave a melting point of 165 to 167 °C.

In turn, `CS(=O)(=O)c1ccc(-c2nn(Cc3ccccc3)c(=O)cc2-c2ccccc2)cc1` yielded a melting point of 211 to 212 °C.

As to `O=C(CSCCCCCCO)c1ccc2[nH]c(=O)[nH]c2c1`, the melting point fell in the range of 180 to 181 °C.

The compound `Cc1nn(-c2cc(CC(Cl)C(=O)NC3CC3)c(Cl)cc2Cl)c(=O)n1C(F)F` (stereo unspecified) yielded a melting point of 139 to 143 °C.

`O=C(c1ccccc1)n1c(=O)n(C2CCN(CCCN3c4cccc5cccc(c45)S3(=O)=O)CC2)c2ccccc21` returned a melting point of 133 °C.

`O=C(Nc1nccs1)c1cn(CC2CCCC2)c2cc(Cl)ccc12` registered a melting point of 117 to 119 °C.

Turning to `CS(=O)(=O)c1ccccc1C#N`, the melting point fell in the range of 105 to 106 °C.

`CCCCCCCCCCCCCCCCOCC(O)CN(CC(O)COCC(O)CO)C(=O)CCCCCCCCCCCCCCC` (stereo unspecified): the melting point fell in the range of 78.2 to 79 °C.

`COc1ccc2c(c1)C(=O)NCCS2` returned a melting point of 164 to 166 °C.

`CN1CCc2nc3ccc(Cl)cc3c(Nc3ccccc3)c2C1`: the melting point was 137 to 139 °C.

`O=C(Nc1cc(Cl)cc(Cl)c1)c1cc(Br)ccc1O` showed a melting point of 243 to 244 °C.

`Cc1nnc2n1-c1sc(Cl)cc1C(c1ccccc1Cl)=NC2`: the melting point was 205 to 206 °C.

In the case of `O=C(CN1CCCC1)Nc1ccc(-c2cc(-c3c[nH]nc3-c3ccccn3)ccn2)cc1`, the melting point is 188 °C.

For `O=C(O)c1cc(OCCCOc2ccc(OCc3ccccc3)cc2)cc(OCCCOc2ccc(OCc3ccccc3)cc2)c1`, the melting point was in the range of 139 to 140 °C.

For the compound `COc1ccc(-c2nc(S(=O)(=O)c3ccc(Cl)cc3)[nH]c2-c2ccc(OC)cc2)cc1`, the melting point lay in the range of 187 to 188 °C.

As for `CCOC(=O)c1nnc2ccc(NC(=O)NC(Cc3ccccc3)C(=O)OC)cc2c1O` (stereo unspecified), the melting point lay within 242 to 243 °C.

Take `O=Cc1ccccc1C(=O)c1ccc(Br)cc1`: the melting point was 103 to 109 °C.

In the case of `COc1nc2ccccc2cc1NC(=O)N1CCN(c2cccc(OC(C)C)c2)CC1`, the melting point is 111 to 113 °C.

Take `COc1ccc2ccc3c(c2c1)C=C(C(=O)O)CO3`: the melting point was found to be 226 °C.

Take `CCOC(=O)c1cnc(Nc2ccc(-n3cnc(C)c3)c(OC)c2)nc1-c1ccc(Cl)cc1`: the melting point was in the range of 216 to 218 °C.

In turn, `Fc1cccc(Cl)c1-c1c(Cl)cc(-c2ccccn2)nc1Cl` registered a melting point of 45 °C.

`Nc1c([N+](=O)[O-])cc([N+](=O)[O-])c2c1CCCC2` yielded a melting point of 175 to 176 °C.

`CCCc1nn(C)c2c(=O)[nH]c(Cc3ccc(O)cc3)nc12` came in with a melting point of 260 °C.

As to `CC1(C)OC[C@H]([C@@H](CS(=O)(=O)c2ccc(Oc3ccc(C(F)(F)F)cc3)cc2)N(O)C=O)O1`, the melting point was 141 to 143 °C.

`CC(C)(C)OC(=O)N1C2CCC1CN(Cc1ccccc1)C2` registered a melting point of 58 to 60 °C.

`CN1C(=O)CC[C@]2(C)c3ccc(-c4ccc(O)c(Cl)c4)cc3CC[C@@H]12` gave a melting point of 245 °C.

Turning to `COc1ccc(-c2cn([C@H]3CN4CCC3CC4)nn2)cc1`, the melting point turned out to be 122 °C.

With `Cc1ccc(-c2nc3ccc(CN4CCN(C)CC4)cc3[nH]2)cc1C#Cc1ccc(NC(C)C)nn1`, the melting point was 129 to 130 °C.

`COc1cccc2c1nc(C(F)F)n2-c1nc(N2CCOCC2)nc2c1ncn2-c1cccnc1` returned a melting point of 206 to 209 °C.

As for `COc1ccc(S(=O)(=O)C2(C(=O)NO)CCN(Cc3ccc(Cl)c(Cl)c3)CC2)cc1`, the melting point is 192 to 195 °C.

The compound `CCn1c(=O)n(C)c(=O)n(-c2cc(C(=O)OC)c(Cl)cc2F)c1=O` had a melting point of 48 to 49 °C.

On to `Cn1cc(CCO)c2c3c(c(-c4ccccc4Cl)cc21)C(=O)NC3=O`, for which the melting point lay within 225 to 229 °C.

Compound `CCCCCCCC/C=C\CCCCCCCC(=O)NCCNC(=O)CCNC(=O)C1OC(C)(C)OCC1(C)C` (stereo unspecified) returned a melting point of 110 to 112 °C.

Compound `CNC(=O)c1cc(C#N)cc(C)c1NC(=O)c1cc(Br)nn1-c1ccccc1Cl` displayed a melting point of 242 to 243 °C.

As to `COC(=O)C1=C(C)Nc2nccn2C1c1cccc([N+](=O)[O-])c1` (stereo unspecified), the melting point was in the range of 263 to 264 °C.

Compound `COc1ccc2c(c1)CCC1C2CCC2(C)C(NC(c3ccccc3)c3ccccc3)CCC12` (stereo unspecified) registered a melting point of 127 to 129 °C.

Compound `CC1(C)Cc2c(ccc3c2C(c2cccc(-c4ccc(NC(=O)OCc5ccccc5)cc4)c2)=NCC3(C)C)O1` showed a melting point of 126 to 129 °C.

The compound `CC(c1ccccc1)n1ncc(-c2nc(-c3ccco3)n[nH]2)c1N` (stereo unspecified) had a melting point of 175 to 176 °C.

Consider `CC(C)(C)c1ccc(CN=C=S)cc1`, for which the melting point lay in the range of 44 to 47 °C.

Compound `CCOC(=O)C1(N)N=C(c2ccccc2Cl)c2cc(CC)sc2-n2c(C)nnc21` (stereo unspecified) registered a melting point of 180 to 181 °C.

The compound `CNC(=S)NCc1cc(-c2ccc(Cl)cc2)no1` came in with a melting point of 135 °C.

Compound `Cc1ccc(S(=O)(=O)Cl)c2c1CCN(C(=O)C(F)(F)F)C2` yielded a melting point of 152 to 153 °C.

Take `CN(C)S(=O)(=O)N[C@@H](Cc1ccc(Nc2nccc3cnccc23)cc1)C(=O)O`: the melting point was found to be 211 °C.
